In patent US10851073B2, “Protein tyrosine phosphatase inhibitors and methods of use thereof” (Calico Life Sciences LLC, priority 2019, dated 2020):
pIC50: −log10 of the molar value. Like-named read-outs stand apart in the source and are kept apart here.

Experiments:
IP10 = assay: Cytokine measurement in mouse plasma; assay type: in vivo
Procedure: Cytokine Measurement in Mouse Plasma. Whole blood was drawn into EDTA powder coated tubes by cardiac puncture from mice on day 8 of dosing with Compound 118 (2 hours after the 16th dose) and plasma was prepared by centrifugation. Cytokines in plasma were measured using the Th1/Th2 Cytokine & Chemokine 20-Plex Mouse ProcartaPlex™ Panel 1 (Invitrogen, Carlsbad, Calif.). IP10 levels (pg/mL) in vehicle or Compound 118 treated animals were reported.

[1] = target: T1, His tagged full-length PTPN1 protein (Homo sapiens, UniProt P18031); assay: Mobility shift assay (MSA) used to determine potency of PTPN1 inhibitors; assay type: biochemical; conditions: enzyme 0.5 nM, substrate 2 μM
T1 construct: made in house
T1 sequence (P18031 with tags, fused parts or gaps): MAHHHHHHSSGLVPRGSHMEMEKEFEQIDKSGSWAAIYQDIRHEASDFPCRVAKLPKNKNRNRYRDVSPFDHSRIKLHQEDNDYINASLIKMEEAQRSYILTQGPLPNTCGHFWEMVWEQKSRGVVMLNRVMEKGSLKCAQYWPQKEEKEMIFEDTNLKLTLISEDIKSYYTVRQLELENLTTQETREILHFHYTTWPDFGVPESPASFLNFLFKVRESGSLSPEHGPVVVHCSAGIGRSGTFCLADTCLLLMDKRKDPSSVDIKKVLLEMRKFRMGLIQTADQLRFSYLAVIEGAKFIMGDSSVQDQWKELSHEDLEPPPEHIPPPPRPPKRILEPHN
How it was run: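 Full-length His-tagged human PTPN1 (0.5 nM) was preincubated 10 min at room temperature with compound (12-point, 1:3 dilution) in HEPES pH 7.5 buffer with EGTA, EDTA, Tween 20 and DTT. A 2 μM fluorescent phospho-insulin receptor peptide was then added for 10 min before quench. Mobility-shift % conversion gave % inhibition and IC50.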

[2] = system: B16F10 mouse melanoma cells; assay: B16F10 IFNγ-induced cellular growth inhibition assay; assay type: cell-based; conditions: B16-F10, with 0.5 ng/mL IFNγ
How it was run: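 B16F10 cells grown in DMEM+10% FBS, with or without 0.5 ng/mL final mouse IFNγ, and dosed in triplicate at 100 μM to 0.001 μM final (0.1% DMSO). Confluence imaged every 6 h for 5 days; percent growth inhibition versus DMSO/with-IFNγ control taken once DMSO/no-IFNγ wells exceeded 95% confluence, giving IC50.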

[3] = system: Pan T cells isolated from C57BL6 splenocytes; assay: T cell function assays (IFNγ and TNFα in supernatants); assay type: cell-based, mouse; conditions: 0.3 μM compound, 3 days; for IFNγ [pg/mL] anti-CD3/CD28 / TNFα [pg/mL] anti-CD3/CD28: anti-CD3/CD28 stimulation
Procedure: Example 231: T Cell Function Assays Pan T cells were isolated from C57BL6 splenocytes using a MACS Pan T cell isolation kit II (Miltenyi Biotec, Auburn, Calif.) according to the manufacturer's instructions. Isolated T cells (200,000 cells/well in a 96 well flat-bottom plate) were cultured in RPMI 1640 supplemented with 10% FBS, […] 2-mercaptoethanol, 100 U/mL penicillin, and 100 μg/mL streptomycin, and incubated with 0.3 μM compound or DMSO in duplicates. After 1 hour, mouse T cell activator CD3/CD28 Dynabeads (ThermoFisher Scientific, Waltham, Mass.) were added at a 1:5 beads to cells ratio to stimulate the T cells for 3 days. T cells with or without compound were incubated in the absence of T cell activator beads to evaluate if compounds nonspecifically stimulate the T cells. After 3 days of stimulation, supernatants were collected and IFNγ and TNFα in supernatants were assessed using an MSD V-plex assay (Meso Scale Discovery, Rockville, Md.).

[4] = read-out: B16F10 Growth Inhibition IC50

SMILES | IP10 in plasma (IP10; 10 mg/kg/dose oral BID, day 8 of dosing (2 hours post 16th dose), value ± SEM) [pg/mL] | IP10 levels in plasma, fold higher than vehicle (IP10; day 8 of dosing) [fold] | pIC50 [1] | pIC50 ([2]; read-out: B16F10 GI IC50) | pIC50 [2, 4] | IFNγ [pg/mL] anti-CD3/CD28 [3] [pg/mL] | TNFα [pg/mL] anti-CD3/CD28 [3] [pg/mL] | IFNγ [pg/mL] no stimulation [3] [pg/mL] | TNFα [pg/mL] no stimulation [3] [pg/mL]
CC(C)CCN[C@@H]1CCc2cc(O)c(N3CC(=O)NS3(=O)=O)c(F)c2C1 (single isomer, unassigned) [Compound 118] | 256 ± 30 | 1.7 | 8.00 to 9.00 | > 6.00 | 6.96 | 261.3 | 159.1 | 1.8 | 1.1
O=C1CN(c2c(O)cc3c(c2F)C[C@H](NCCC2CC2)CC3)S(=O)(=O)N1 (single isomer, unassigned) [Compound 133] |  |  | 8.00 to 9.00 | > 6.00 | 6.66 | 204.1 | 142.0 | 1.0 | 0.8
CC(C)(CCN[C@@H]1CCc2cc(O)c(N3CC(=O)NS3(=O)=O)c(F)c2C1)C(F)(F)F (single isomer, unassigned) [Compound 177] |  |  | 8.00 to 9.00 | > 6.00 | 6.85 | 168.2 | 113.7 | 1.0 | 0.7
O=C1CN(c2c(O)cc3c(c2F)C[C@H](NCCCC(F)F)CC3)S(=O)(=O)N1 (single isomer, unassigned) [Compound 199] |  |  | > 9.00 | > 6.00 | > 7.30 | 212.9 | 147.8 | 1.8 | 1.1
O=C1CN(c2c(O)cc3c(c2F)C[C@@H](NCCC(F)F)CC3)S(=O)(=O)N1 (single isomer, unassigned) [Compound 259] |  |  | 7.00 to 8.00 | 5.00 to 6.00 | 5.82 |  |  |  | 
O=C1CN(c2c(O)cc3c(c2F)C[C@H](NCCC(F)F)CC3)S(=O)(=O)N1 (single isomer, unassigned) [Compound 260] |  |  | 8.00 to 9.00 | > 6.00 | 6.74 | 139.6 | 100.0 | 0.8 | 1.1
